Experimental data reported in PMC8760490, “Discovery of novel furanylbenzamide inhibitors that target oncogenic tyrosine phosphatase SHP2 in leukemia cells” (The Journal of Biological Chemistry, 2021).
Entries after “also recorded” stand apart in the source; their conditions may differ.

Columns and labels:
[1] = system: patient-derived AML cells; experiment: Viability of patient-derived AML cells; type: cell-based, human; settings: 10 μM; 2, 4 or 6 days in culture
Description: Because SHP2 activity is critical for ERK activation, we used phospho-ERK1/2 (p-ERK1/2) as a more direct readout of SHP2 inhibitor efficacy. […] This p-ERK rebound in MOLM-13 cells treated with RMC-4550 is reminiscent of previously reported data from human hepatoma Hep3B cells treated with SHP099 ([34]). We also tested the effects of SBI-4668 or RMC-4550 on two patient-derived AML samples (Fig. 4F).
Patient-derived AML cells were obtained from Carol Burian and Dr James Mason (Scripps MD Anderson Center) under approved Institutional Review Board protocol 13-6180. […] Final peripheral blood mononuclear cells were resuspended in Bambanker serum-free freezing medium (Wako Pure Chemical Industries, Ltd) and stored frozen before cell viability was assessed as described later.
Viability of AML and esophageal carcinoma cells was assessed using the ATP-depletion assay CellTiter-Glo (Promega). Cells were harvested at 1 × 10^6/ml to 2 × 10^6 cells/ml with cell numbers determined by trypan blue using the Countess Cell counter (Thermo Scientific) and resuspended in culture media. […] Luminescence was read on a Tecan Spark Multimode Microplate Reader, and data were analyzed using GraphPad Prism software.

MDA-MB-468 TNBC cells = experiment: TNBC cell viability (CellTiter-Glo), MDA-MB-468; type: cell-based; settings: Homo sapiens, MDA-MB-468; 72 h per text; 5 days per legend and method
Protocol: Inhibition of SHP2 has been reported to inhibit the growth of cancer cells including Kasumi-1 acute myeloid leukemia (AML) and KYSE-520 esophageal cancer cells ([30]). […] Thus, we treated two TNBC cell lines, BT-549 and MDA-MB-468, with SBI-4668 or the SHP2 allosteric inhibitor SHP099 at various concentrations and determined cell viability after 72 h, compared with the vehicle control (Fig. 4C). […] Next, we performed an 11-day colony formation assay with TNBC cells treated with SBI-4668 or SHP099 at 5, 10, or 20 μM (Fig. 4D).
Triple-negative breast cancer cell viability was assessed using the ATP-depletion assay CellTiter-Glo. Briefly, 2500 cells in 25 μl media (RPMI + 10% FBS + 1× penicillin–streptomycin [Omega Scientific]) were seeded per well of a 384-well tissue culture–treated plate (Greiner). About 25 nl of 1000× test compound were added using a Labcyte Echo acoustic dispenser, and the cells were incubated for 5 days before addition of 10 μl of CellTiter-Glo reagent as described by the manufacturer. Luminescence was detected on a BioTek Synergy 2 microplate reader, and the values normalized to those of vehicle (DMSO)-treated controls before being plotted using GraphPad Prism.

SHP2-E76K = target: T1, SHP2-E76K (Homo sapiens, UniProt Q06124, E76K); experiment: Time-dependent inhibition (preincubation 1-60 min); type: biochemical; settings: preincubation 1, 5, 10, 20 or 60 min with SHP2-E76K
T1 construct: Recombinant human full-length SHP2 (1–594) WT and E76K mutants; made in house
T1 sequence (Q06124 1-593 E76K): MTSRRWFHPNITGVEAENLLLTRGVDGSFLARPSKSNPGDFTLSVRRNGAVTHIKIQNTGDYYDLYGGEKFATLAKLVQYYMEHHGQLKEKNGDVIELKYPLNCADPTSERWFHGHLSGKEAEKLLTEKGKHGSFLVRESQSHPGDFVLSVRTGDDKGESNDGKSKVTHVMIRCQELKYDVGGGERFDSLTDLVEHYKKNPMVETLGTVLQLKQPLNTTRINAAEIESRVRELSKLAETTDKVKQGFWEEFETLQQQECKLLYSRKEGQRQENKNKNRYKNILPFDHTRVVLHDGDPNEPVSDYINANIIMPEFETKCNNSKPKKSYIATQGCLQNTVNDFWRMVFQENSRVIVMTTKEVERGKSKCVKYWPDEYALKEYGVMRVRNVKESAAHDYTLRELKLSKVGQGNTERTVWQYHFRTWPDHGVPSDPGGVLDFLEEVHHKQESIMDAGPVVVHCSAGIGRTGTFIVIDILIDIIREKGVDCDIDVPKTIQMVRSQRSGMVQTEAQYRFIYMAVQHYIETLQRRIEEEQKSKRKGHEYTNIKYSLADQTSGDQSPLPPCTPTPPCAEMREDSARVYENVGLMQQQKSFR
Protocol: PTPs contain a highly nucleophilic cysteine that is essential for catalytic activity but is susceptible to oxidation and covalent modifications, which abrogate its nucleophilic function and phosphatase activity ([26]). Because the methylenebenzothiophenone moiety of our inhibitors could potentially act as a Michael acceptor and thus covalently bind to the catalytic cysteine, we tested whether the observed inhibition of SHP2 was dependent on the preincubation time of inhibitor and enzyme. An irreversible covalent inhibitor may show time-dependent inhibition, with increased potency at longer incubation times. Conversely, the potency of a noncovalent inhibitor is expected to be insensitive to the time it is incubated with the enzyme. To test for time-dependent inhibition, SBI-2130 at ten different concentrations was preincubated with SHP2-E76K for 1, 5, 10, 20, or 60 min, before the DiFMUP substrate was added to the reaction mixture and initial rates were recorded (Fig. 3C). […] In addition, we used mass spectrometry to test whether inhibitor:protein adducts are being formed. Specifically, we incubated SHP2cat (5 μM) with SBI-4668 (100 μM) in assay buffer for various times (1, 5, 20, and 60 min) before trypsin proteolysis and subsequent mass spectrometry analysis. […] Finally, we performed a jump-dilution experiment to test for irreversible inhibition of SHP2. […]

In the case of `O=C(Nc1ccccc1)c1cc(-c2ccc(/C=C3\Sc4ccccc4C3=O)o2)ccc1O` [SBI-4668, (Z)-2-Hydroxy-5-(5-((3-oxobenzo[b]thiophen-2(3H)-ylidene)methyl)furan-2-yl)-N-phenylbenzamide], the “growth of two patient-derived AML samples” value [1] is reported as “inhibited the growth of both AML patient samples” and the IC50 (MDA-MB-468 TNBC cells) is reported as 2500 nM.
With `Nc1ccc(NC(=O)c2cc(-c3ccc(/C=C4\Sc5ccccc5C4=O)o3)ccc2O)cc1` [SBI-2130, (Z)-N-(4-Aminophenyl)-2-hydroxy-5-(5-((3-oxobenzo[b]thiophen-2(3H)-ylidene)methyl)furan-2-yl)benzamide] the time-dependent inhibition (SHP2-E76K) was “No time-dependent inhibition; also recorded: not time dependent”.
